Results on 14 compounds are retold here after patent US8933074B2, “1,2-disubstituted heterocyclic compounds” (FORUM Pharmaceuticals Inc., priority 2008, dated 2015).

Molecules are shown by their SMILES.

Sequence of Human PDE10A1 (Q9Y233 1-779 isoform Q9Y233-1): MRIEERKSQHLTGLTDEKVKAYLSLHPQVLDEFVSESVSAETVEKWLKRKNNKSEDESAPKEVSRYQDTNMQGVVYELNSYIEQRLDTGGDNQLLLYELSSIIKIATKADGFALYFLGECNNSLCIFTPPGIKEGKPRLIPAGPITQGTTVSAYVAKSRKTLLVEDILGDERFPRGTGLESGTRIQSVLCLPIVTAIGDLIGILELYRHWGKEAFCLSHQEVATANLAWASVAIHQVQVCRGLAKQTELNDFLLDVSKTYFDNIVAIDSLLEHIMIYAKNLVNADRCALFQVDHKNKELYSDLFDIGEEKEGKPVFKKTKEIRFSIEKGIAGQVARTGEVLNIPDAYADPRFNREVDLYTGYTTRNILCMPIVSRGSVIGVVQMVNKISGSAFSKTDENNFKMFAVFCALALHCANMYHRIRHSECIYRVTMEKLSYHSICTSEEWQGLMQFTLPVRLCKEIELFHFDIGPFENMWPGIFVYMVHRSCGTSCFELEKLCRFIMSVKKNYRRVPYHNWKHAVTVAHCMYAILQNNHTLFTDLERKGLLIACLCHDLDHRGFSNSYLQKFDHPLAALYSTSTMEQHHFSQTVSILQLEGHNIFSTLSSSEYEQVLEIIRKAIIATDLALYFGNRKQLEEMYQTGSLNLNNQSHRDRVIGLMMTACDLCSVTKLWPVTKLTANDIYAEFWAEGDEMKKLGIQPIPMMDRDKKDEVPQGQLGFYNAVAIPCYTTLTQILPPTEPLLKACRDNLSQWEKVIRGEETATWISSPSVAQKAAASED

This assay has as its target Human PDE10A1 (Homo sapiens, UniProt Q9Y233). Description: hPDE10A1 enzyme inhibition. The settings on record: [3H]-cAMP substrate, 20 minutes at 37° C.; read-out: hPDE10A1 IC50 Band. The class given is biochemical. As to the method:
50 μl samples of serially diluted Human PDE10A1 enzyme were incubated with 50 μl of [^3H]-cAMP for 20 minutes (at 37° C.). Reactions were carried out in Greiner 96 deep well 1 ml master-block. The enzyme was diluted in 20 mM Tris HCl pH7.4 and [^3H]-cAMP was diluted in 10 mM MgCl2, 40 mM Tris.HCl pH 7.4. The reaction was terminated by denaturing the PDE enzyme (at 70° C.) after which [^3H]-5′-AMP was converted to [^3H]-adenosine by adding 25 μl snake venom nucleotidase and incubating for 10 minutes (at 37° C.). Adenosine, being neutral, was separated from charged cAMP or AMP by the addition of 200 μl Dowex resin. Samples were shaken for 20 minutes then centrifuged for 3 minutes at 2,500 r.p.m. 50 μl of supernatant was removed and added to 200 μl of MicroScint-20 in white plates (Greiner 96-well Optiplate) and shaken for 30 minutes before reading on Perkin Elmer TopCount Scintillation Counter.
To check inhibition profile 11 μl of serially diluted inhibitor was added to 50 μl of [^3H]-cAMP and 50 ul of diluted Human PDE10A1 and assay was carried out as in the enzyme activity assay. Data was analysed using Prism software (GraphPad Inc).
One may read the IC50 as the concentration that gives 50% inhibition. `CC1(C)OC(c2ccc3nsnc3c2)=C(c2ccc(OCc3ccc4ccccc4n3)cc2)C1=O` [Example 167, 5-(Benzo[c][1,2,5]thiadiazol-5-yl)-2,2-dimethyl-4-(4-(quinolin-2-ylmethoxy)phenyl)furan-3(2H)-one]: the IC50 was at most 50 nM.
Next, `CN1C(=O)C(c2ccc(OCc3ccc4ccccc4n3)cc2)=C(N2CCOCC2)C1=O` [Example 812, 1-Methyl-3-morpholino-4-(4-(quinolin-2-ylmethoxy)phenyl)-1H-pyrrole-2,5-dione]: over 50 nM; `CC(C)Oc1ccc(C2=C(c3ccc(OCc4ccc5ccccc5n4)cc3)C(=O)C(C)(C)O2)cc1` [Example 158, 5-(4-isopropoxyphenyl)-2,2-dimethyl-4-(4-(quinolin-2-ylmethoxy)phenyl)furan-3(2H)-one]: over 50 nM; `CC1(C)OC(c2ccc(OCc3ccc4ccccc4n3)cc2)=C(c2ccncc2)C1=O` [Example 249, 2,2-dimethyl-4-(pyridin-4-yl)-5-(4-(quinolin-2-ylmethoxy)phenyl) furan-3(2H)-one]: at most 50 nM.
The value for `COc1ccc(C2=C(c3ccc(OCc4ccc5ccccc5n4)cc3)C(=O)OC2(C)C)cc1` [Example 33, 4-(4-methoxyphenyl)-5,5-dimethyl-3-(4-(quinolin-2-ylmethoxy)phenyl)furan-2(5H)-one] was at most 50 nM.
The value for `COc1ccc(-c2c(-c3ccc(OCc4ccc5ccccc5n4)cc3)n(C)c(=O)n2C)cc1` [Example 822, 4-(4-Methoxyphenyl)-1,3-dimethyl-5-(4-(quinolin-2-ylmethoxy)phenyl)-1H-imidazol-2(3H)-one] was over 50 nM.
As to `CC1(C)OC(c2ccc(OCC3CC3)cc2)=C(c2ccc(OCc3ccc4ccccc4n3)cc2)C1=O` [Example 161, 5-(4-(cyclopropylmethoxy)phenyl)-2,2-dimethyl-4-(4-(quinolin-2-ylmethoxy)phenyl)furan-3(2H)-one], the IC50 was over 50 nM.
Next, `Cc1cnc(COc2ccc(C3=C(c4ccncc4)OC(C)(C)C3=O)cc2)c(C)c1` [Example 809, 4-(4-((3,5-Dimethylpyridin-2-yl)methoxy)phenyl)-2,2-dimethyl-5-(pyridin-4-yl) furan-3(2H)-one]: at most 50 nM; `COc1ccc(C2=C(c3ccc(OCc4ccc5ccccc5n4)cc3)C(=O)N(C)C2(C)C)cc1` [Example 73, 4-(4-methoxyphenyl)-1,5,5-trimethyl-3-(4-(quinolin-2-ylmethoxy)phenyl)-1H-pyrrol-2(5H)-one]: over 50 nM; `CC1(C)NC(=O)C(c2ccc(OCc3ccc4ccccc4n3)cc2)=C1c1ccncc1` [Example 63, 5,5-dimethyl-4-(pyridin-4-yl)-3-(4-(quinolin-2-ylmethoxy)phenyl)-1H-pyrrol-2(5H)-one]: at most 50 nM.
Next, `CC1(C)OC(c2ccc(OC(F)F)cc2)=C(c2ccc(OCc3ccc4ccccc4n3)cc2)C1=O` [Example 159, 5-(4-(difluoromethoxy)phenyl)-2,2-dimethyl-4-(4-(quinolin-2-ylmethoxy)phenyl)furan-3(2H)-one]: at most 50 nM; `CC1(C)OC(c2ccc(N(S(C)(=O)=O)S(C)(=O)=O)cc2)=C(c2ccc(OCc3ccc4ccccc4n3)cc2)C1=O` [Example 817, N-(4-(5,5-dimethyl-4-oxo-3-(4-(quinolin-2-ylmethoxy)phenyl)-4,5-dihydrofuran-2-yl)phenyl)-N-(methylsulfonyl)methanesulfonamide]: at most 50 nM; `CC1(C)OC(c2ccc(NS(C)(=O)=O)cc2)=C(c2ccc(OCc3ccc4ccccc4n3)cc2)C1=O` [Example 815, N-(4-(5,5-dimethyl-4-oxo-3-(4-(quinolin-2-ylmethoxy)phenyl)-4,5-dihydrofuran-2-yl)phenyl)methanesulfonamide]: at most 50 nM.
The value for `CC1(C)OC(c2ccc([N+](=O)[O-])cc2)=C(c2ccc(OCc3ccc4ccccc4n3)cc2)C1=O` [Example 164, 2,2-Dimethyl-5-(4-nitrophenyl)-4-(4-(quinolin-2-ylmethoxy)phenyl) furan-3(2H)-one] was at most 50 nM.
